Key:
[1] = target: T1, Tyrosine-protein phosphatase non-receptor type 1 (Homo sapiens, UniProt P18031); assay: Inhibition of GST-tagged PTP1B (unknown origin) using pNPP as substrate measured for 3 mins by colorimetric assay
T1 sequence (P18031 whole entry): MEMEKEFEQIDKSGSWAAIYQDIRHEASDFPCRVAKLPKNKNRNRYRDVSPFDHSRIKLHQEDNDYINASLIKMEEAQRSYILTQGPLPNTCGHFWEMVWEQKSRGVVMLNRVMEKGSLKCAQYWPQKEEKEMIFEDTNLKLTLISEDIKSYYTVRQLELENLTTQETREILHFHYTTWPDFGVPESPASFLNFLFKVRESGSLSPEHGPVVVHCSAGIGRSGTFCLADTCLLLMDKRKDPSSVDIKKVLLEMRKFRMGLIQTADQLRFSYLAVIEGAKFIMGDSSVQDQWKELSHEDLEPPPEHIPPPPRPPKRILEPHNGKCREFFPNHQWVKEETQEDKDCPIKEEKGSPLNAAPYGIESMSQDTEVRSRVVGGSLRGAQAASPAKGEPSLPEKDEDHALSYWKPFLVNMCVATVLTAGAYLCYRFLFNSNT

[2] = target: T2, Tyrosine-protein phosphatase non-receptor type 11 (Homo sapiens, UniProt Q06124); assay: Inhibition of SHP2 (unknown origin) using 3-o-methylfluorescein phosphate as substrate by fluorescence assay
T2 sequence (Q06124 whole entry): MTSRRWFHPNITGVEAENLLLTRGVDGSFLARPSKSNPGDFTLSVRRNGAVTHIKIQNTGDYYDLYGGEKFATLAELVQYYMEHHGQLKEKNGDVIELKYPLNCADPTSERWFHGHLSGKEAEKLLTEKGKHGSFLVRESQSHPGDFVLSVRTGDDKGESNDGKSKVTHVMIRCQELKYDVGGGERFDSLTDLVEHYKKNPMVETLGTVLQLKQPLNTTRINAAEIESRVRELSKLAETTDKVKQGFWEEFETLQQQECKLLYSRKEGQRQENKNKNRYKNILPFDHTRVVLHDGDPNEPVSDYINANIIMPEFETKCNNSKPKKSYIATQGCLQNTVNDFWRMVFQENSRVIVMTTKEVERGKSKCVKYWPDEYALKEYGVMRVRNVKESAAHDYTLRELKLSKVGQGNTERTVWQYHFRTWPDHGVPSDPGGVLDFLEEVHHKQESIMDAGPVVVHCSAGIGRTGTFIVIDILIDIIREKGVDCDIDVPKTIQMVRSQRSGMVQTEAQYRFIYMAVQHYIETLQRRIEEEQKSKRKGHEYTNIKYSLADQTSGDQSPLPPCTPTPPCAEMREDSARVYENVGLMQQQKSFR

[3] = target: T3, Tyrosine-protein phosphatase non-receptor type 1 (Homo sapiens) (UniProt P18031); assay: Inhibition of GST-tagged PTP1B (unknown origin) at 20 ug/ml using pNPP as substrate measured for 3 mins by colorimetric assay
T3 sequence (whole entry): T1 sequence (P18031 whole entry)

[4] = target: T4, Tyrosine-protein phosphatase non-receptor type 11 (Homo sapiens) (UniProt Q06124); assay: Inhibition of SHP2 (unknown origin) at 20 ug/ml using 3-o-methylfluorescein phosphate as substrate by fluorescence assay
T4 sequence (whole entry): T2 sequence (Q06124 whole entry)

[5] = target: T5, Tyrosine-protein phosphatase non-receptor type 2 (Homo sapiens) (UniProt P17706); assay: Inhibition of GST-tagged TCPTP (unknown origin) at 20 ug/ml using pNPP as substrate measured for 3 mins by colorimetric assay
T5 sequence (whole entry): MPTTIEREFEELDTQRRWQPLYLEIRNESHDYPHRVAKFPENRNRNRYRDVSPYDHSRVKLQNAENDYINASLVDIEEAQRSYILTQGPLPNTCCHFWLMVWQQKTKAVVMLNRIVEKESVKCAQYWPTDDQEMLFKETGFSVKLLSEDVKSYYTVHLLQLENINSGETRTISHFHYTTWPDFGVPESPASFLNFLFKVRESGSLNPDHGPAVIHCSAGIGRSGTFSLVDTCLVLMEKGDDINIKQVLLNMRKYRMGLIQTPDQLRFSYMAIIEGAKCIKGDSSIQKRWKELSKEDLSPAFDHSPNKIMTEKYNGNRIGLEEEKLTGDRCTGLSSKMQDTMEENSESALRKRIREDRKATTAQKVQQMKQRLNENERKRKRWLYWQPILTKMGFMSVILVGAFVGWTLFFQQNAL

Homo sapiens [6] = species on record: Homo sapiens; assay: Selectivity index, ratio of IC50 for SHP1 (unknown origin) to IC50 for SHP2 (unknown origin)
[7] = target: Tyrosine-protein phosphatase non-receptor type 6 (Homo sapiens, UniProt P29350); assay: Inhibition of SHP1 (unknown origin) using 3-o-methylfluorescein phosphate as substrate by fluorescence assay
Homo sapiens [8] = species on record: Homo sapiens; assay: Selectivity index, ratio of IC50 for GST-tagged PTP1B (unknown origin) to iC50 for SHP2 (unknown origin)

Tyrosine-protein phosphatase non-receptor type 6, sequence (P29350 whole entry): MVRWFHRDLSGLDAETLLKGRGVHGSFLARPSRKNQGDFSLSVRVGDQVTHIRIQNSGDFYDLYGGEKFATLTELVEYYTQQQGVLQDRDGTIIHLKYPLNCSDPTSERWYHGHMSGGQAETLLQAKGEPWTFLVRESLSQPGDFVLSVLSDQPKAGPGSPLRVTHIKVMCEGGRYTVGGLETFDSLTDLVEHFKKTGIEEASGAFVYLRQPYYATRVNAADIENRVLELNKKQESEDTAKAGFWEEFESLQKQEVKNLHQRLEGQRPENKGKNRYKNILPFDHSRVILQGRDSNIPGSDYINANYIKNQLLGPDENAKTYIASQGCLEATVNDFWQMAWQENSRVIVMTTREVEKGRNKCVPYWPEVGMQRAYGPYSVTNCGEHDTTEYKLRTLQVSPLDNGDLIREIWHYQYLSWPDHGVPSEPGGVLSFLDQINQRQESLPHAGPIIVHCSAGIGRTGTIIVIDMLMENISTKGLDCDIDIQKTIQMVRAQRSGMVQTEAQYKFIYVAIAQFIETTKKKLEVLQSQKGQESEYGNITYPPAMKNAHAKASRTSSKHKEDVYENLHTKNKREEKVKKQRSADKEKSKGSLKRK

| Structure (SMILES) | IC50 [2] [µM] | inhibition [3] [%] | inhibition [4] [%] | also measured |
| --- | --- | --- | --- | --- |
| c1csc(CNc2ccc3nsnc3c2)c1 | 23.9 | – | – | IC50 [1]: 48.3 µM |
| Nc1cc2nsnc2cc1C#CC1CC1 | 15.5 | < 50 | – | – |
| c1cc2nsnc2cc1NCC1CCCCC1 | – | < 50 | < 50 | – |
| CC(C)(C)C#Cc1cc2nsnc2cc1N | 25.8 | < 50 | – | – |
| Nc1cc2nsnc2cc1C#Cc1ccccc1 | 14 | – | – | IC50 [1]: 33.6 µM |
| O=[N+]([O-])c1cc2nsnc2cc1C#CC1CC1 | – | < 50 | < 50 | – |
| c1coc(CNc2ccc3nsnc3c2)c1 | – | < 50 | < 50 | – |
| Nc1cc2nsnc2cc1C#CCCCCCl | 5.81 | – | – | IC50 [1]: 38.2 µM |
| Nc1ccc2nsnc2c1 | 39.1 | < 50 | – | – |
| C#Cc1cc2nsnc2cc1[N+](=O)[O-] | 30 | < 50 | – | – |
| CC(C)(C)C#Cc1cc2nsnc2cc1[N+](=O)[O-] | – | < 50 | < 50 | – |
| C[Si](C)(C)C#Cc1cc2nsnc2cc1N | – | < 50 | < 50 | – |
| Nc1cc2nsnc2cc1-c1ccccc1 | – | < 50 | < 50 | – |
| O=[N+]([O-])c1cc2nsnc2cc1C#Cc1ccccc1 | – | < 50 | < 50 | – |
| C#Cc1cc2nsnc2cc1N | 2.11 | – | – | inhibition [5]: < 50%; Ratio IC50 (Homo sapiens [6]): 2.02; IC50 [1]: 50.2 µM; IC50 [7]: 4.28 µM; Ratio IC50 (Homo sapiens [8]): 25 |
| CCCNc1ccc2nsnc2c1 | – | < 50 | < 50 | – |
| O=[N+]([O-])c1cc2nsnc2cc1-c1ccccc1 | – | < 50 | < 50 | – |
| O=[N+]([O-])c1cc2nsnc2cc1C#CCCCCCl | – | < 50 | < 50 | – |
| c1ccc(CNc2ccc3nsnc3c2)cc1 | 26.5 | – | – | IC50 [1]: 42.1 µM |
| C[Si](C)(C)C#Cc1cc2nsnc2cc1[N+](=O)[O-] | – | < 50 | < 50 | – |
| c1ccc(CNc2ccc3nsnc3c2)nc1 | 30.6 | < 50 | – | – |
| Nc1cc2nsnc2cc1Br | 42.4 | < 50 | – | – |
